This is an account of results in ChEMBL document CHEMBL3045784, “Effects of oleic acid on the tissue factor activity, blood lipids, antioxidant and oxidant parameters of streptozotocin induced diabetic rats fed a high-cholesterol diet” (Med Chem Res, 2010).

Data set [1] has as its system Rattus norvegicus. As to the kind of experiment: Anticoagulant activity in Rattus norvegicus Wistar (rat) diabetic-hyperlipidemic model assessed as decrease in TFa activity in aorta measuring clotting time at 10.91% administered through feeding measured after 12 weeks (reference value: 36.25 +/- 1.39 secs). In kind it is functional.
For data set [2], the system named is Rattus norvegicus. As to the kind of experiment: Anticoagulant activity in Rattus norvegicus Wistar (rat) diabetic-hyperlipidemic model assessed as decrease in TFa activity in pancreas measuring clotting time at 10.91% administered through feeding measured after 12 weeks (reference value: 27.25 +/- 2.82 secs). The class given is functional.
Data set [3] deals with Rattus norvegicus. As to the kind of experiment: Anticoagulant activity in Rattus norvegicus Wistar (rat) diabetic-hyperlipidemic model assessed as decrease in TFa activity in heart measuring clotting time at 10.91% administered through feeding measured after 12 weeks (reference value: 27.13 +/- 3.72 secs). In kind it is functional.
The subject of data set [4] is Rattus norvegicus. As to the kind of experiment: Anticoagulant activity in Rattus norvegicus Wistar (rat) diabetic-hyperlipidemic model assessed as decrease in TFa activity in spleen measuring clotting time at 10.91% administered through feeding measured after 12 weeks (reference value: 69.63 +/- 1.77 secs). In kind it is functional.
Data set [5] relates to Rattus norvegicus. As to the kind of experiment: Anticoagulant activity in Rattus norvegicus Wistar (rat) diabetic-hyperlipidemic model assessed as decrease in TFa activity in kidney measuring clotting time at 10.91% administered through feeding measured after 12 weeks (reference value: 52.38 +/- 2 secs). In kind it is functional.
Data set [6] deals with Rattus norvegicus. As to the kind of experiment: Anticoagulant activity in Rattus norvegicus Wistar (rat) diabetic-hyperlipidemic model assessed as decrease in TFa activity in brain measuring clotting time at 10.91% administered through feeding measured after 12 weeks (reference value: 50.5 +/- 1.77 secs). The class given is functional.
For data set [7], the system named is Rattus norvegicus. As to the kind of experiment: Anticoagulant activity in Rattus norvegicus Wistar (rat) diabetic-hyperlipidemic model assessed as decrease in TFa activity in liver measuring clotting time at 10.91% administered through feeding measured after 12 weeks (reference value: 74.38 +/- 4.60 secs). In kind it is functional.
In data set [8] the test system is Rattus norvegicus. As to the kind of experiment: Anticoagulant activity in Rattus norvegicus Wistar (rat) diabetic-hyperlipidemic model assessed as decrease in TFa activity in lung measuring clotting time at 10.91% administered through feeding measured after 12 weeks (reference value: 19.25 +/- 3.20 secs). In kind it is functional.
Data set [9] relates to Rattus norvegicus. As to the kind of experiment: Anticoagulant activity in Rattus norvegicus Wistar (rat) diabetic-hyperlipidemic model assessed as fibrinogen level at 10.91% administered through feeding measured after 12 weeks (reference value: 2.13 +/- 0.23 g/l). The class given is functional.
The test system of data set [10] is Rattus norvegicus. As to the kind of experiment: Anticoagulant activity in Rattus norvegicus Wistar (rat) diabetic-hyperlipidemic model assessed as prothombin time at 10.91% administered through feeding measured after 12 weeks (reference value: 14.69 +/- 0.8 secs). In kind it is functional.
Data set [11] has as its system Rattus norvegicus. As to the kind of experiment: Anticoagulant activity in Rattus norvegicus Wistar (rat) diabetic-hyperlipidemic model assessed as activated partial thromboplastin time at 10.91% administered through feeding measured after 12 weeks (reference value: 17.13 +/- 1.73 secs). In kind it is functional.
The subject of data set [12] is Rattus norvegicus. As to the kind of experiment: Antioxidant activity in Rattus norvegicus Wistar (rat) diabetic-hyperlipidemic model assessed as serum malondialdehyde level at 10.91% administered through feeding measured after 12 weeks by TBARS assay (reference value: 5.78 +/- 0.08 nmol/ml). In kind it is functional.
The test system of data set [13] is Rattus norvegicus. As to the kind of experiment: Increase in blood GSH level in Rattus norvegicus Wistar (rat) diabetic-hyperlipidemic model at 10.91% administered through feeding measured after 12 weeks (reference value: 20.31 +/- 0.93 %mg). In kind it is functional.
Data set [14] relates to Rattus norvegicus. As to the kind of experiment: Antihyperlipidemic activity in Rattus norvegicus Wistar (rat) diabetic-hyperlipidemic model assessed as serum total lipid level at 10.91% administered through feeding measured after 12 weeks ( Rvb = 922.25 +/- 41.78 mg/dl). The class given is functional.
Data set [15] relates to Rattus norvegicus. As to the kind of experiment: Antihyperlipidemic activity in Rattus norvegicus Wistar (rat) diabetic-hyperlipidemic model assessed as serum triglyceride level at 10.91% administered through feeding measured after 12 weeks ( Rvb = 86.45 +/- 5.7 mg/dl). In kind it is functional.
In data set [16] the test system is Rattus norvegicus. As to the kind of experiment: Antihyperlipidemic activity in Rattus norvegicus Wistar (rat) diabetic-hyperlipidemic model assessed as serum HDL-cholesterol level at 10.91% administered through feeding measured after 12 weeks ( Rvb = 22.80 +/- 2.41 mg/dl). In kind it is functional.
The subject of data set [17] is Rattus norvegicus. As to the kind of experiment: Antihyperlipidemic activity in Rattus norvegicus Wistar (rat) diabetic-hyperlipidemic model assessed as serum LDL-cholesterol level at 10.91% administered through feeding measured after 12 weeks ( Rvb = 74.25 +/- 9.36 mg/dl). In kind it is functional.
Data set [18] relates to Rattus norvegicus. As to the kind of experiment: Toxicity in Rattus norvegicus Wistar (rat) diabetic-hyperlipidemic model assessed as change in body weight at 10.91% administered through feeding measured for 12 weeks ( Rvb = 290 +/-76 g). The settings on record: in vivo, po, 2016 h. The class given is organism-based.
Data set [19] concerns Rattus norvegicus. As to the kind of experiment: Antihyperlipidemic activity in Rattus norvegicus Wistar (rat) diabetic-hyperlipidemic model assessed as serum total cholesterol level at 10.91% administered through feeding measured after 12 weeks ( Rvb = 309 +/- 35.88 mg/dl). In kind it is functional.
The test system of data set [20] is Rattus norvegicus. As to the kind of experiment: Antidiabetic activity in Rattus norvegicus Wistar (rat) diabetic-hyperlipidemic model assessed as serum glucose level at 10.91% administered through feeding measured after 12 weeks ( Rvb = 194.4 +/- 23.99 mg/dl). In kind it is functional.

Take `CCCCCCCC/C=C\CCCCCCCC(=O)O` [OLEIC ACID]: the Time was 33.5 s in the data set on Rattus norvegicus [1]; 28.5 s with Rattus norvegicus [2]; 28.25 s with Rattus norvegicus [3]; 62.25 s in the data set on Rattus norvegicus [4]; 65.13 s in the data set on Rattus norvegicus [5]; 60.13 s in the data set on Rattus norvegicus [6]. For the same compound, the Time in the data set on Rattus norvegicus [7] is on record as 77.25 s; in the data set on Rattus norvegicus [8], 20.38 s. The Activity in the data set on Rattus norvegicus [9] is 1.97 g/L; in the data set with Rattus norvegicus [12] it was 5.81 nmol/mL; with Rattus norvegicus [13], 29.96 %mg; in the data set with Rattus norvegicus [14], 773.75 mg/dL; in the data set on Rattus norvegicus [15] it was 71.68 mg/dL; with Rattus norvegicus [16] it was 25.53 mg/dL. The Activity was determined as 74.63 mg/dL in the data set with Rattus norvegicus [17], 243 g in the data set with Rattus norvegicus [18], 351.3 mg/dL in the data set with Rattus norvegicus [19] and 190.63 mg/dL in the data set with Rattus norvegicus [20]. Further, the PT with Rattus norvegicus [10] turned out to be 15.1 s. The APTT in the data set on Rattus norvegicus [11] is 17.88 s.
